Data published in ChEMBL document CHEMBL2040800 (J Med Chem, 2012).
In brackets after ≈: the same amount, converted by molar mass.

How the values were obtained:
[1] = tested on: Plasmodium falciparum; assay: Antimalarial activity against chloroquine-sensitive Plasmodium falciparum NF54 after 24 hrs by hypoxanthine incorporation assay; type: functional, organism-based; settings: NF54, 24 h
[2] = tested on: Plasmodium falciparum; assay: Antimalarial activity against chloroquine-resistant Plasmodium falciparum K1 after 24 hrs by hypoxanthine incorporation assay; type: functional, organism-based; settings: K1, 24 h
[3] = Intrinsic clearance in human liver microsomes at 1 uM up to 60 mins; type: ADME, Microsome; settings: read-out: CLH
[4] = Kinetic solubility of the compound in phosphate buffer after 30 mins by nephelometry at pH 6.5; type: physicochemical; settings: read-out: Kinetic_solubility
[5] = Half life in human liver microsomes at 1 uM; type: ADME, Microsome
[6] = Plasma protein binding in human by reverse phase gradient HPLC analysis; type: ADME, cell-free; settings: read-out: PPB (converted)
[7] = Partition coefficient, log D of the compound at pH 7.4 by phase gradient HPLC analysis; type: physicochemical; settings: octanol/water
[8] = tested on: Plasmodium berghei; assay: Antimalarial activity against Plasmodium berghei ANKA expressing GFP infected in Sprague-Dawley rat assessed as reduction in parasitemia at 50 mg/kg, po administered as 4 doses measured on day 4 post-infection by flow cytometry; type: functional; design: scale not given: the % may be the effect or the level left
[9] = tested on: Plasmodium berghei; assay: Antimalarial activity against Plasmodium berghei ANKA expressing GFP infected in Sprague-Dawley rat assessed as mean survival days of host at 50 mg/kg, po administered as 4 doses; type: functional

| SMILES | IC50 [1] | IC50 [2] | microsomal CLint at 1 µM [3] | solubility kinetic at 0.5 h [4] | half-life at 1 µM [5] | fraction unbound [6] | chromatographic logD [7] | Activity [8] | MSD [9] |
| --- | --- | --- | --- | --- | --- | --- | --- | --- | --- |
| CS(=O)(=O)c1ccc(-c2cnc(N)c(-c3ccc4nonc4c3)c2)cc1 | 470 nM | 520 nM |  |  |  |  |  |  |  |
| CS(=O)(=O)c1ccc(-c2cnc(N)c(-c3ccc(OCCN4CCCC4)cc3)c2)cc1 | 2070 nM | 2160 nM |  |  |  |  |  |  |  |
| COc1ncc(-c2cc(-c3ccc(S(C)(=O)=O)cc3)cnc2N)cc1Cl | 2230 nM | 2130 nM |  |  |  |  |  |  |  |
| CS(=O)(=O)c1ccc(-c2cnc(N)c(-c3ccc(-n4cccn4)cc3)c2)cc1 | 230 nM | 220 nM |  |  |  |  |  |  |  |
| CS(=O)(=O)c1ccc(-c2cnc(N)c(-c3ccc(N4CCOCC4)cc3)c2)cc1 | 2460 nM | 2400 nM |  |  |  |  |  |  |  |
| CS(=O)(=O)c1ccc(-c2cnc(N)c(-c3ccc(F)nc3)c2)cc1 | 640 nM | 500 nM | < 7 µL/min/mg | 25 µg/mL (≈ 72.8 µM) | 4.12 h | 0.431 | 1.1 |  |  |
| COc1ncc(-c2cc(-c3ccc(S(C)(=O)=O)cc3)cnc2N)cn1 | 260 nM | 280 nM |  |  |  |  |  |  |  |
| CS(=O)(=O)c1ccc(-c2cnc(N)c(-c3ccc(S(C)(=O)=O)cc3)c2)cc1 | 80 nM | 80 nM | < 5 µL/min/mg | 6.3 µg/mL (≈ 15.7 µM) | > 5.83 h |  | 2 | 99.6% | 15 days |
| Cc1nc2cc(-c3cc(-c4ccc(S(C)(=O)=O)cc4)cnc3N)ccc2s1 | 390 nM | 330 nM |  |  |  |  |  |  |  |
| CS(=O)(=O)c1ccc(-c2cnc(N)c(-c3ccc(C(F)(F)F)c(F)c3)c2)cc1 | 78 nM | 58 nM | 14 µL/min/mg | 1.6 µg/mL (≈ 3.9 µM) | 2.05 h | 0.052 | 3.1 |  |  |
| CS(=O)(=O)c1ccc(-c2cnc(N)c(-c3ccc4nccnc4c3)c2)cc1 | 620 nM | 590 nM |  |  |  |  |  |  |  |
| COc1ncccc1-c1cc(-c2ccc(S(C)(=O)=O)cc2)cnc1N | 1230 nM | 1110 nM |  |  |  |  |  |  |  |
| Cc1ccc(-c2cc(-c3ccc(S(C)(=O)=O)cc3)cnc2N)cc1C(F)(F)F | 21 nM | 19 nM | 23 µL/min/mg | 1.6 µg/mL (≈ 3.94 µM) | 1.25 h | 0.031 | 3.6 |  |  |
| Cc1ccc(-c2cc(-c3ccc(S(C)(=O)=O)cc3)cnc2N)c2cccnc12 | 36 nM | 33 nM | 16 µL/min/mg | 6.3 µg/mL (≈ 16.2 µM) | 1.77 h | 0.056 | 2.6 |  |  |
| CS(=O)(=O)c1ccc(-c2cnc(N)c(-c3cccc(C(F)(F)F)c3)c2)cc1 | 110 nM | 90 nM | < 7 µL/min/mg | 3.1 µg/mL (≈ 7.9 µM) | > 4.17 h | 0.059 | 3.3 |  |  |
| CS(=O)(=O)c1ccc(-c2cnc(N)c(-c3ccc(N4CCCC4)nc3)c2)cc1 | 456 nM | 540 nM |  |  |  |  |  |  |  |
| CS(=O)(=O)c1ccc(-c2cnc(N)c(-c3ccoc3)c2)cc1 | 1130 nM | 1120 nM |  |  |  |  |  |  |  |
